# Results as given in patent US11572399B2, “Long-acting GIP peptide analogues” (University of Copenhagen, priority 2017, dated 2023).
# Like-named read-outs stand apart in the source and are kept apart here. Peptide text beside a SMILES is read from it. * marks the point of attachment. C16 diacid = O=C(O)CCCCCCCCCCCCCCC(=O)*
# How the values were obtained:
# [1] = target: T1, human GIP receptor (Homo sapiens, UniProt P48546); test: cAMP accumulation assay, agonism (ligand alone); assay type: cell-based; details: COS-7 cells, Table 1; for EC50: read-out: cAMP agonism nM (EC50); for cAMP agonism Emax: intrinsic cAMP activity; for Emax: COS-7, intrinsic cAMP activity
# T1 construct: host or cells: COS-7, transient transfection (calcium phosphate), cDNA in pCMV-Script
# T1 sequence (P48546 22-466): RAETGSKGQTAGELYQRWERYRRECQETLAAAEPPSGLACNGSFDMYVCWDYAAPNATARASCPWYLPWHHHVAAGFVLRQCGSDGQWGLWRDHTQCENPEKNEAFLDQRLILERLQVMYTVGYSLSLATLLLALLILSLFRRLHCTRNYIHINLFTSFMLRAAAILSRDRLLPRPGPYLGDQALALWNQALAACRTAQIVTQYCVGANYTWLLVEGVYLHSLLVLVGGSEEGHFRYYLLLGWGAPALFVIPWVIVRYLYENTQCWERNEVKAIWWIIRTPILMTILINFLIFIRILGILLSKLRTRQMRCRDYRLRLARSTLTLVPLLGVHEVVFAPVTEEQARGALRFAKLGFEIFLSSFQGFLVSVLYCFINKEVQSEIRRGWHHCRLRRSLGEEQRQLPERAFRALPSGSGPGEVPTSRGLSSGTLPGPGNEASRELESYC
# [2] = target: T1, human GIP receptor; test: 125I-human GIP competition binding assay, in the presence and absence of 2% HSA; details: for Binding fold (paired): fold decrease in affinity compared to GIP(3-30)NH2;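 as to all read-outs here: nonspecific binding taken as radioligand bound to untransfected cells, IC50 obtained from nonlinear regression fits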
# Description: Transient transfection of the COS-7 cells for cAMP accumulation and competition binding was performed using the calcium phosphate precipitation method with the addition of chloroquine^46-47.
# Transient transfected COS-7 cells expressing the human GIP receptor were seeded in clear 96-well plates the day after transfection using a number of cells/well that obtained 5-10% specific binding of the added radioactive ligand. The following day, cells were assayed by competition binding for 3 h at 4° C. using 15-40 pM 125 I-human GIP as well as increasing concentrations unlabeled ligand in 50 mM Hepes buffer (pH 7.2) in the presence and absence of 2% HSA. After incubation, the cells were washed twice in ice-cold binding buffer (+/−2% HSA) and lysed using 200 mM NaOH with 1% SDS for 30 min. Nonspecific binding was determined as the binding of radioactive ligand to untransfected cells.
# IC50, EC50, and Ki values were determined by nonlinear regression. […] Ki values were based on the formula for one class of binding sites in homologous competition binding studies and the Cheng Prussoffs formula, respectively (DeBlasi et al., 1989). To determine the HSA binding potential, the fold change in affinity (as determined by IC50) was calculated as IC50 (plus HSA)/IC50 (minus HSA).
# [3] = Table 3b, initial data, read-out: Binding IC50
# [4] = heterologous competition binding, transiently transfected COS-7 cells expressing the human GIP receptor, read-out: Binding
Structure (SMILES),EC50 [1],cAMP agonism Emax [1],"IC50 [2, 3]",Binding fold (paired) ([2]; Table 3b),"IC50 [2, 4]",Emax [1]
"CCCCCCCCCCCC(=O)N[C@@H](CCC(=O)O)C(=O)NCC(=O)N[C@H](C(=O)N[C@@H](Cc1ccccc1)C(=O)N[C@H](C(=O)N[C@@H](CO)C(=O)N[C@@H](CC(=O)O)C(=O)N[C@@H](Cc1ccc(O)cc1)C(=O)N[C@@H](CO)C(=O)N[C@H](C(=O)N[C@@H](C)C(=O)N[C@@H](CCSC)C(=O)N[C@@H](CC(=O)O)C(=O)N[C@@H](CCCCN)C(=O)N[C@H](C(=O)N[C@@H](Cc1c[nH]cn1)C(=O)N[C@@H](CCC(N)=O)C(=O)N[C@@H](CCC(N)=O)C(=O)N[C@@H](CC(=O)O)C(=O)N[C@@H](Cc1ccccc1)C(=O)N[C@H](C(=O)N[C@@H](CC(N)=O)C(=O)N[C@@H](Cc1c[nH]c2ccccc12)C(=O)N[C@@H](CC(C)C)C(=O)N[C@@H](CC(C)C)C(=O)N[C@@H](C)C(=O)N[C@@H](CCC(N)=O)C(=O)N[C@@H](CCCCN)C(N)=O)C(C)C)[C@@H](C)CC)[C@@H](C)CC)[C@@H](C)CC)[C@@H](C)O [AT101, [hGIP(3-30)NH2—C12/3]]",0.7 nM,62%,9.9 nM,0.7 fold,9.9 nM,–
"CCCCCCCCCCCC(=O)NCCCC[C@H](NC(=O)[C@H](CC(=O)O)NC(=O)[C@H](CCSC)NC(=O)[C@H](C)NC(=O)[C@@H](NC(=O)[C@H](CO)NC(=O)[C@H](Cc1ccc(O)cc1)NC(=O)[C@H](CC(=O)O)NC(=O)[C@H](CO)NC(=O)[C@@H](NC(=O)[C@H](Cc1ccccc1)NC(=O)[C@@H](NC(=O)CNC(=O)[C@@H](N)CCC(=O)O)[C@@H](C)O)[C@@H](C)CC)[C@@H](C)CC)C(=O)N[C@H](C(=O)N[C@@H](Cc1c[nH]cn1)C(=O)N[C@@H](CCC(N)=O)C(=O)N[C@@H](CCC(N)=O)C(=O)N[C@@H](CC(=O)O)C(=O)N[C@@H](Cc1ccccc1)C(=O)N[C@H](C(=O)N[C@@H](CC(N)=O)C(=O)N[C@@H](Cc1c[nH]c2ccccc12)C(=O)N[C@@H](CC(C)C)C(=O)N[C@@H](CC(C)C)C(=O)N[C@@H](C)C(=O)N[C@@H](CCC(N)=O)C(=O)N[C@@H](CCCCN)C(N)=O)C(C)C)[C@@H](C)CC [AT102, [hGIP(3-30)NH2—C12/16]]",0.7 nM,66%,59.1 nM,6.1 fold,59.1 nM,–
"CCCCCCCCCCCCCCCC(=O)N[C@@H](CCC(=O)O)C(=O)NCC(=O)N[C@H](C(=O)N[C@@H](Cc1ccccc1)C(=O)N[C@H](C(=O)N[C@@H](CO)C(=O)N[C@@H](CC(=O)O)C(=O)N[C@@H](Cc1ccc(O)cc1)C(=O)N[C@@H](CO)C(=O)N[C@H](C(=O)N[C@@H](C)C(=O)N[C@@H](CCSC)C(=O)N[C@@H](CC(=O)O)C(=O)N[C@@H](CCCCN)C(=O)N[C@H](C(=O)N[C@@H](Cc1c[nH]cn1)C(=O)N[C@@H](CCC(N)=O)C(=O)N[C@@H](CCC(N)=O)C(=O)N[C@@H](CC(=O)O)C(=O)N[C@@H](Cc1ccccc1)C(=O)N[C@H](C(=O)N[C@@H](CC(N)=O)C(=O)N[C@@H](Cc1c[nH]c2ccccc12)C(=O)N[C@@H](CC(C)C)C(=O)N[C@@H](CC(C)C)C(=O)N[C@@H](C)C(=O)N[C@@H](CCC(N)=O)C(=O)N[C@@H](CCCCN)C(N)=O)C(C)C)[C@@H](C)CC)[C@@H](C)CC)[C@@H](C)CC)[C@@H](C)O [AT104, [hGIP(3-30)NH2—C16/3]]",–,–,75 nM,4.9 fold,75 nM,81%
"CCCCCCCCCCCCCCCC(=O)NCCCC[C@H](NC(=O)[C@H](CC(=O)O)NC(=O)[C@H](CCSC)NC(=O)[C@H](C)NC(=O)[C@@H](NC(=O)[C@H](CO)NC(=O)[C@H](Cc1ccc(O)cc1)NC(=O)[C@H](CC(=O)O)NC(=O)[C@H](CO)NC(=O)[C@@H](NC(=O)[C@H](Cc1ccccc1)NC(=O)[C@@H](NC(=O)CNC(=O)[C@@H](N)CCC(=O)O)[C@@H](C)O)[C@@H](C)CC)[C@@H](C)CC)C(=O)N[C@H](C(=O)N[C@@H](Cc1c[nH]cn1)C(=O)N[C@@H](CCC(N)=O)C(=O)N[C@@H](CCC(N)=O)C(=O)N[C@@H](CC(=O)O)C(=O)N[C@@H](Cc1ccccc1)C(=O)N[C@H](C(=O)N[C@@H](CC(N)=O)C(=O)N[C@@H](Cc1c[nH]c2ccccc12)C(=O)N[C@@H](CC(C)C)C(=O)N[C@@H](CC(C)C)C(=O)N[C@@H](C)C(=O)N[C@@H](CCC(N)=O)C(=O)N[C@@H](CCCCN)C(N)=O)C(C)C)[C@@H](C)CC [AT105, [hGIP(3-30)NH2—C16/16]]",–,–,522 nM,–,522 nM,34%
"CCCCCCCCCCCCCC(=O)N[C@@H](CCC(=O)O)C(=O)NCC(=O)N[C@H](C(=O)N[C@@H](Cc1ccccc1)C(=O)N[C@H](C(=O)N[C@@H](CO)C(=O)N[C@@H](CC(=O)O)C(=O)N[C@@H](Cc1ccc(O)cc1)C(=O)N[C@@H](CO)C(=O)N[C@H](C(=O)N[C@@H](C)C(=O)N[C@@H](CCSC)C(=O)N[C@@H](CC(=O)O)C(=O)N[C@@H](CCCCN)C(=O)N[C@H](C(=O)N[C@@H](Cc1c[nH]cn1)C(=O)N[C@@H](CCC(N)=O)C(=O)N[C@@H](CCC(N)=O)C(=O)N[C@@H](CC(=O)O)C(=O)N[C@@H](Cc1ccccc1)C(=O)N[C@H](C(=O)N[C@@H](CC(N)=O)C(=O)N[C@@H](Cc1c[nH]c2ccccc12)C(=O)N[C@@H](CC(C)C)C(=O)N[C@@H](CC(C)C)C(=O)N[C@@H](C)C(=O)N[C@@H](CCC(N)=O)C(=O)N[C@@H](CCCCN)C(N)=O)C(C)C)[C@@H](C)CC)[C@@H](C)CC)[C@@H](C)CC)[C@@H](C)O [AT110, [hGIP(3-30)NH2—C14/3]]",–,–,–,5.2 fold,–,64%
"CC[C@H](C)[C@H](NC(=O)[C@H](CO)NC(=O)[C@H](Cc1ccc(O)cc1)NC(=O)[C@H](CC(=O)O)NC(=O)[C@H](CO)NC(=O)[C@@H](NC(=O)[C@H](Cc1ccccc1)NC(=O)[C@@H](NC(=O)CNC(=O)[C@@H](N)CCC(=O)O)[C@@H](C)O)[C@@H](C)CC)C(=O)N[C@@H](C)C(=O)N[C@@H](CCSC)C(=O)N[C@@H](CC(=O)O)C(=O)N[C@@H](CCCCN)C(=O)N[C@H](C(=O)N[C@@H](Cc1c[nH]cn1)C(=O)N[C@@H](CCC(N)=O)C(=O)N[C@@H](CCC(N)=O)C(=O)N[C@@H](CC(=O)O)C(=O)N[C@@H](Cc1ccccc1)C(=O)N[C@H](C(=O)N[C@@H](CC(N)=O)C(=O)N[C@@H](Cc1c[nH]c2ccccc12)C(=O)N[C@@H](CC(C)C)C(=O)N[C@@H](CC(C)C)C(=O)N[C@@H](CCCCNC(=O)CCCCCCCCCCCCCCC(=O)O)C(=O)N[C@@H](CCC(N)=O)C(=O)N[C@@H](CCCCN)C(N)=O)C(C)C)[C@@H](C)CC [AT317, [hGIP(3-30)NH2[A28K]-C16diacid/28]] (H-EGTFISDYSIAMDKIHQQDFVNWLLK(C16 diacid)QK-NH2; N-terminus assumed)",62 nM,–,–,–,–,21.8%
"CC[C@H](C)[C@H](NC(=O)[C@H](CO)NC(=O)[C@H](Cc1ccc(O)cc1)NC(=O)[C@H](CC(=O)O)NC(=O)[C@H](CO)NC(=O)[C@@H](NC(=O)[C@H](Cc1ccccc1)NC(=O)[C@@H](N)[C@@H](C)O)[C@@H](C)CC)C(=O)N[C@@H](C)C(=O)N[C@@H](CCSC)C(=O)N[C@@H](CC(=O)O)C(=O)N[C@@H](CCCCN)C(=O)N[C@H](C(=O)N[C@@H](Cc1c[nH]cn1)C(=O)N[C@@H](CCC(N)=O)C(=O)N[C@@H](CCC(N)=O)C(=O)N[C@@H](CC(=O)O)C(=O)N[C@@H](Cc1ccccc1)C(=O)N[C@H](C(=O)N[C@@H](CC(N)=O)C(=O)N[C@@H](Cc1c[nH]c2ccccc12)C(=O)N[C@@H](CC(C)C)C(=O)N[C@@H](CC(C)C)C(=O)N[C@@H](C)C(=O)N[C@@H](CCC(N)=O)C(=O)N[C@@H](CCCCNC(=O)CCCCCCCCCCCCCCC(=O)O)C(N)=O)C(C)C)[C@@H](C)CC [AT372, [hGIP(5-30)NH2[Q30K]-C16diacid/30]]",–,–,–,–,–,6%
